# Laboratory results from ChEMBL document CHEMBL5223073, “Andrographolide suppresses cisplatin-induced endothelial hyperpermeability through activation of PI3K/Akt and eNOS -derived nitric oxide” (Bioorg Med Chem, 2020).
# Calls of active or inactive are those of the source. The calls are words filed in the database; no cut-off is given here.
# Experiments:
# [1] = test system: HUVEC; test: Cytotoxicity against HUVEC cells assessed as reduction in cell viability at <=30 uM measured after 24 hrs by MTT assay; type: toxicity, cell-based; conditions: human
# [2] = test system: HUVEC; test: Induction of NO production in cisplatin-treated HUVEC cells assessed as increase in fluorescence signal at 30 uM preincubated with eNOS inhibitor, N(G)-nitro-L-arginine methyl ester for 3 hrs followed by compound addition and measured immediately by DAF-FM dye based analysis; type: functional, cell-based; conditions: Homo sapiens
# [3] = test system: HUVEC; test: Induction of NO production in cisplatin-treated HUVEC cells assessed as increase in fluorescence signal at 30 uM preincubated with PI3K inhibitor, wortmannin for 3 hrs followed by compound addition and measured immediately by DAF-FM dye based analysis; type: functional, cell-based; conditions: Homo sapiens
# [4] = molecular target: T1, Nitric oxide synthase 3 (Homo sapiens) (UniProt P29474); test: Activation of eNOS activity in cisplatin-treated HUVEC cells assessed as increase in intracellular cGMP level at 30 uM preincubated with eNOS inhibitor, N(G)-nitro-L-arginine methyl ester followed by compound addition and further incubated for 15 mins by radioimmunoassay; type: cell-based
# T1 sequence (whole entry): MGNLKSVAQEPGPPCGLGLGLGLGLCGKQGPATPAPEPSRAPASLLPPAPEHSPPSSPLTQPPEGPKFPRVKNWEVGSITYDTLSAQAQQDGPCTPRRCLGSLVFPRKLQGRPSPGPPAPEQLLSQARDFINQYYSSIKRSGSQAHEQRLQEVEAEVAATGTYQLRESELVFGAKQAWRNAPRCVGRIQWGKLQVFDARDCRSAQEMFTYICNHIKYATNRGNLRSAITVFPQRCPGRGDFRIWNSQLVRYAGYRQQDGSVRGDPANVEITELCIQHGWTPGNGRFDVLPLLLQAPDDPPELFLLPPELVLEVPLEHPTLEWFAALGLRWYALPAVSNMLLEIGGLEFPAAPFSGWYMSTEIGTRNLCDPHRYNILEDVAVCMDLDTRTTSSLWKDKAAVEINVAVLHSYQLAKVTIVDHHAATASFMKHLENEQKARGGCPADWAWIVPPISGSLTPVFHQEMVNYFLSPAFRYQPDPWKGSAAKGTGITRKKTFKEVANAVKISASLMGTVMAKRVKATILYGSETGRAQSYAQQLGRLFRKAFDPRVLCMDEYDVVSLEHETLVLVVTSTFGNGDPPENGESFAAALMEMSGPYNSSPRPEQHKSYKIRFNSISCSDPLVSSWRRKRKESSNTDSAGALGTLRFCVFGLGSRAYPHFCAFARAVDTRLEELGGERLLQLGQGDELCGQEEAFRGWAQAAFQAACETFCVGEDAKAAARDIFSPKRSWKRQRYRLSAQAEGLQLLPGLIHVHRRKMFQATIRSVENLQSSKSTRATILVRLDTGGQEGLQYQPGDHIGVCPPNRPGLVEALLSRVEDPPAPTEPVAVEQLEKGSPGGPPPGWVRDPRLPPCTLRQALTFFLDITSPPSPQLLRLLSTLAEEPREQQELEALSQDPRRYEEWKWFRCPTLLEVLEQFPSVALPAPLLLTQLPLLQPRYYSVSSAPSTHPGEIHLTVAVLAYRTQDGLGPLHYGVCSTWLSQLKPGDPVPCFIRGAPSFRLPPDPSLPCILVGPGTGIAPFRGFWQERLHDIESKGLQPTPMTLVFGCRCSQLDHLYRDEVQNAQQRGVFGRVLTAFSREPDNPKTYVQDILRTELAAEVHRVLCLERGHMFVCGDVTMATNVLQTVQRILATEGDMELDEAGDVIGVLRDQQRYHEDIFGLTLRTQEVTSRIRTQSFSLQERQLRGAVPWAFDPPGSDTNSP
# [5] = molecular target: T2, NF-kappa-B inhibitor alpha (Homo sapiens) (UniProt P25963); test: Inhibition of cisplatin-induced phosphorylation of IkappaBalpha at Ser32/36 residue in HUVEC cells at 30 uM preincubated with PI3K inhibitor, wortmannin followed by compound addition and further incubated for 1 hr by Western blot analysis; type: cell-based
# T2 sequence (whole entry): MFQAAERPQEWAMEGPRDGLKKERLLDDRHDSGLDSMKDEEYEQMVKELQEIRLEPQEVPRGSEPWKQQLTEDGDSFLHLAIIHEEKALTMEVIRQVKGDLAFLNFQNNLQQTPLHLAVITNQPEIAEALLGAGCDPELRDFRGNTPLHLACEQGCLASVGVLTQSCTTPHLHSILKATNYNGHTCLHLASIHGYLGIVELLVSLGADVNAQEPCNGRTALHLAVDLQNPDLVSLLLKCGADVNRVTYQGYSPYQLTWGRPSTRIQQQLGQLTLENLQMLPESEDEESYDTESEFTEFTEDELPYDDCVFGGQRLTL
# [6] = molecular target: T2, NF-kappa-B inhibitor alpha (Homo sapiens); test: Inhibition of cisplatin-induced phosphorylation of IkappaBalpha at Ser32/36 residue in HUVEC cells at 30 uM preincubated with eNOS inhibitor, N(G)-nitro-L-arginine methyl ester followed by compound addition and further incubated for 1 hr by Western blot analysis; type: cell-based
# [7] = test system: HUVEC; test: Upregulation of cytosolic p65 level in cisplatin-treated HUVEC cells at 30 uM incubated for 1 hr by Western blot analysis; type: functional, cell-based; conditions: Homo sapiens
# [8] = test system: HUVEC; test: Upregulation of cytosolic p65 level in cisplatin-treated HUVEC cells at 30 uM preincubated with PI3K inhibitor, wortmannin followed by compound addition and further incubated for 1 hr by Western blot analysis; type: functional, cell-based; conditions: Homo sapiens
# [9] = test system: HUVEC; test: Downregulation of cisplatin-induced ICAM1 protein expression in HUVEC cells at 30 uM preincubated with PI3K inhibitor, wortmannin followed by compound addition and further incubated for 1 hr by Western blot analysis; type: functional, cell-based; conditions: Homo sapiens
# [10] = test system: HUVEC; test: Inhibition of cisplatin-induced PKCalpha translocation in HUVEC cells assessed as increase in PKCalpha accumulation in cytosol at 30 uM incubated for 15 mins in presence of cisplatin by Western blot analysis; type: functional, subcellular; conditions: Homo sapiens
# [11] = test system: HUVEC; test: Inhibition of cisplatin-induced TRPC1 phosphorylation in [32P] orthophosphate labeled HUVEC cells at 30 uM incubated for 15 mins in presence of cisplatin and PI3K inhibitor, wortmannin by Western blot analysis; type: cell-based; conditions: Homo sapiens
# [12] = test system: HUVEC; test: Inhibition of cisplatin-induced store operated Ca2+ release in HUVEC cells at 30 uM preincubated with compound in presence of eNOS inhibitor, N(G)-nitro-L-arginine methyl ester followed by cisplatin stimulation by Fura-2 AM staining based calcium influx assay; type: functional, cell-based; conditions: Homo sapiens
# [13] = test system: HUVEC; test: (§1) Improvement in cisplatin-induced endothelial monolayer integrity in HUVEC cells assessed as increase in transendothelial electric resistance at 30 uM preincubated with compound followed by cisplatin stimulation and measured after 45 mins; type: functional, cell-based; conditions: Homo sapiens
# [14] = test system: HUVEC; test: as §1, with “compound in presence of eNOS inhibitor, N(G)-nitro-L-arginine methyl ester” for “compound”; type: functional, cell-based; conditions: Homo sapiens
# [15] = test system: U-937; test: (§2) Inhibition of cisplatin-induced ICAM1 dependent HUVEC cells adhesion to human U-937 cells at 10 to 30 uM preincubated with HUVEC cells for 4.5 hrs in presence of cisplatin and PI3K inhibitor, wortmannin followed by U-937 cell suspension addition and measured after 1 hr by BCECF fluorescent probe based assay; type: functional; conditions: dose 10-30 µM, time 5.5 hrs
# [16] = test system: U-937; test: as §2, with “eNOS” for “PI3K”, “N(G)-nitro-L-arginine methyl ester” for “wortmannin”; type: functional; conditions: dose 10-30 µM, time 5.5 hrs
compound,measurement,setting,value
C=C1CC[C@@H]2[C@](C)(CO)[C@H](O)CC[C@@]2(C)[C@@H]1C/C=C1/C(=O)OC[C@H]1O [ANDROGRAPHOLIDE],Activity,[1],Non-Toxic
same,Activity,[2],inactive
same,Activity,[3],inactive
same,Activity,[4],inactive
same,inhibition,[5],inactive
same,inhibition,[6],inactive
same,Activity,[7],Active
same,Activity,[8],inactive
same,Activity,[9],inactive
same,inhibition,[10],Active
same,inhibition,[11],inactive
same,inhibition,[12],inactive
same,Activity,[13],Active
same,Activity,[14],inactive
same,inhibition,[15],inactive
same,inhibition,[16],inactive
